Experimental data from a melting point compilation (Tetko et al.; mined from patent text by program, amines drawn as free bases though some values may be those of a salt).

Compared with `N#CC1=C(C2CCCC2)Nc2n[nH]cc2C1c1cccc(C#N)c1Br` (stereo not drawn), `COc1ccc2oc(N)c(C#N)c(=O)c2c1` is higher in melting point: 247 °C for the first, 320 °C for the second.

First: COC(=O)CCC(=O)c1ccc(CCCCCCNC(C)=O)cc1
Second: CC(C)(C)OC(=O)CC[C@H](NC(=O)c1ccc(NCc2cnc(N)c(C#N)n2)cc1)C(=O)OC(C)(C)C
The melting point of the first is higher: 87 to 89 °C for the first, 71 to 78 °C for the second.

Compared with `O=C1N=C(N2CCOCC2)SC1c1cncc(-c2cc3c(c(C45CC6CC(CC(C6)C4)C5)c2)OCO3)c1` (stereo not drawn), `O=C(c1cc2cc(O)ccc2[nH]1)C12CC3CC(CC(C3)C1)C2` is lower in melting point: 255 to 258 °C for the first, 197 to 199 °C for the second.

First: CCOC(=O)C(=NOC)c1csc(NC(=O)CCl)n1
Second: CCOC(=O)C(=CNc1nnc(C(F)(F)F)s1)C(=O)c1cc(F)c(Cl)nc1Cl
The melting point of the first is higher: 81 to 82 °C for the first, 73 to 76 °C for the second.

First: Cc1cc(C(=O)NC(C)CN(C)CC(C)NC(=O)c2cc(C)cc3nc4ccccc4nc23)c2nc3ccccc3nc2c1 (stereo not drawn)
Second: CCCN(Cc1ccc(-c2ccccc2-c2nc(=O)s[nH]2)cc1)c1nc2ccccc2cc1C(=O)OCC
The melting point of the first is lower: 75 to 78 °C for the first, 124 to 125 °C for the second.

Compared with `N#Cc1ccc(CC(NC(=O)C(Cc2ccccc2)S(=O)(=O)Nc2ccc3ccccc3c2)C(=O)N2CCCCC2)cc1` (stereo not drawn), `O=C1c2ccccc2C(=O)c2c1c(Oc1ccc(CCCO)cc1)c1ccc(Sc3ccccc3)cc1c2Oc1ccc(CCCO)cc1` is lower in melting point: 210 °C for the first, 140 to 148 °C for the second.

First: C=CCCn1cc([N+](=O)[O-])nc1Br
Second: O=Cc1cccc([N+]([O-])=Cc2cccc([N+](=O)[O-])c2)c1
The melting point of the first is lower: 28 to 30 °C for the first, 195 to 197 °C for the second.

Compared with `COc1ccc(Cn2c(C)c(Br)c3cnnc(OCc4ccccc4)c32)cc1`, `Nc1ccc(Cl)n2nc(SCc3ccccc3)nc12` is lower in melting point: 149 to 152 °C for the first, 113 to 114 °C for the second.

First: C1=Nc2cc3c(cc2=C1)N=c1ccccc1=3
Second: COc1cccc(C2=NN=C(C)Cc3cc(OC)c(OC)cc32)c1
The melting point of the first is higher: 210 to 211 °C for the first, 133 to 135 °C for the second.

First: CN(C)CCCNc1ccnc2cc3c(cc12)OCO3
Second: CCN(CC)CCCNc1ncc2cc(-c3c(C)cccc3C)c(NC(=O)NC(C)(C)C)nc2n1
The melting point of the first is higher: 178 to 181 °C for the first, 86 to 91 °C for the second.

First: FC(F)c1nc2ccccc2n1-c1nc(Nc2ccccc2)nc(N2CCOCC2)n1
Second: CCn1c(C(O)(c2ccccc2)c2ccccc2)nc(-c2ccncc2)c1-c1ccc(Cl)cc1
The melting point of the first is lower: 171 to 174 °C for the first, 222 to 223 °C for the second.

First: CC(=O)COC(=O)C=CC(=O)OCC(C)=O
Second: CCC(=O)NC(=O)CCCCBr
The melting point of the first is higher: 121 to 123 °C for the first, 94 to 97 °C for the second.

First: Cc1nonc1-n1cc(C(=O)O)c(=O)c2cc(F)c(N3CC[C@H](N)C3)c(F)c21
Second: Cc1cc(-c2cc3c(cc2F)c(=O)c(C(=O)O)cn3C2CC2)cc(CO)n1
The melting point of the first is lower: 169 to 170 °C for the first, 270 to 272 °C for the second.

First: CC(N)C(=O)Nc1cc(OCC(F)(F)F)ccc1-c1cccnc1 (stereo not drawn)
Second: COc1ccc(C(=O)Nc2cccnc2Cl)cc1
The melting point of the first is higher: 135 to 140 °C for the first, 125 °C for the second.

Compared with `Cn1cc(-c2ccc3nc(NC(=O)c4ccc(C(C)(C)C)cc4)cn3n2)cn1`, `CCCN(Cc1ccc(-c2ccccc2-c2nnn[nH]2)cc1)c1nn(C)cc1C(=O)O` is lower in melting point: 245 to 246 °C for the first, 101 to 105 °C for the second.

First: CCc1ccccc1NC(=O)C(C#N)=CN(C)C
Second: CC(CC1(c2ccccc2)C=CCC=C1)N(C)C (stereo not drawn)
The melting point of the first is higher: 128 to 130 °C for the first, 87 to 90 °C for the second.

First: CC1(C)OC(c2ccc(S(N)(=O)=O)cc2)=C(c2ccc(F)cc2)C1=O
Second: CCOC(=O)C1=C(C)NC(CS(=O)c2ccccc2)=C(C(=O)OCC)C1c1cccc([N+](=O)[O-])c1 (stereo not drawn)
The melting point of the first is higher: 162 to 163 °C for the first, 160 to 162 °C for the second.

First: CSc1cc(C(C)(C)C)c(O)c(C(C)(C)C)c1
Second: COc1cc(F)c(C2NCCc3ccsc32)cc1OC (stereo not drawn)
The melting point of the first is lower: 69 to 71 °C for the first, 108 to 111 °C for the second.

Compared with `CON=C(C)CN(C(=O)c1ccco1)c1c(C)cccc1C`, `CNC(=O)c1ccc(C=CC(=O)NCC(=O)N(C)c2ccc(Cl)c(COc3cccc4ccc(C)nc34)c2)cc1` is higher in melting point: 108 to 109 °C for the first, 221 to 228 °C for the second.
